Reference: patent US20070161592A1, “Method of treating fear” (priority 2005, published 2007)

What was measured:
Assay type in all cases: cell-based, mouse
[1] = tested on: NMDAR-mediated currents in the hippocampus; test: NMDAR-mediated EPSCs in hippocampal CA1 neurons; conditions: hippocampus
Description: Coronal brain slices ([…]) from 6-8-week-old C57BL/6 mice, containing ACC or hippocampus, were prepared using standard methods (Wei et al., 2001). Slices were transferred to a submerged recovery chamber containing oxygenated (95% O2 and 5% CO2) artificial cerebrospinal fluid (ACSF) (in mM: 124 NaCl, 4.4 KCl, 2 CaCl2, 1 MgSO4, 25 NaHCO3, 1 NaH2PO4, 10 glucose) at room temperature for at least 1 h.
(§1) Experiments were performed in a recording chamber on the stage of an Axioskop 2FS microscope with infrared DIC optics for visualizing whole-cell patch clamp recordings. EPSCs were recorded from layer II-III neurons using an Axon 200B amplifier (Axon Instruments, CA) and stimulations were delivered using a bipolar tungsten stimulating electrode placed in layer V of the ACC. In hippocampal slices, EPSCs were evoked by stimulating the Schaffer collateral-commissural pathway. EPSCs were induced by repetitive stimulations at 0.02 Hz and neurons were voltage clamped at −70 mV. The recording pipettes (3-5 MΩ) were filled with solution containing (mM) 145 K-gluconate, 5 NaCl, 1 MgCl2, 0.2 EGTA, 10 HEPES, 2 Mg-ATP, and 0.1 Na3-GTP (adjusted to pH 7.2 with KOH). After obtaining stable EPSCs for 10 min, three kinds of LTP induction paradigms were used within 12 min after establishing the whole-cell configuration to prevent wash out effect on LTP induction (Tsvetkov et al., 2002). The first protocol involved paired presynaptic 80 pulses at 2 Hz with postsynaptic depolarization at +30 mV (referred to as pairing training). The second involved paired 3 presynaptic stimuli that caused 3 EPSPs (10 ms ahead) with 3 postsynaptic APs at 30 Hz, paired 15 times every 5 s (named as EPSPs-APs protocol). The third involved theta-burst stimulation (5 trains of burst with 4 pulses at 100 Hz, at 200 ms interval; repeated 4 times at intervals of 10 s; named as TBS). The NMDAR-mediated component of EPSCs was pharmacologically isolated in Mg^2+-free ACSF containing: CNQX (20 μM), glycine (1 μM) and picrotoxin (100 μM). The patch electrodes contained (in mM) 102 cesium gluconate, 5 TEA-chloride, 3.7 NaCl, 11 BAPTA, 0.2 EGTA, 20 HEPES, 2 MgATP, 0.3 NaGTP, and 5 QX-314 chloride (adjusted to pH 7.2 with CsOH). Neurons were voltage clamped at −60 mV and NMDARs-mediated EPSCs were evoked at 0.05 Hz. Picrotoxin (100 μM) was always present to block GABAA receptor-mediated inhibitory synaptic currents. The access resistance was 15-30 MΩ and was monitored throughout the experiment. Data were discarded if access resistance changed by more than 15% during an experiment. Results are expressed as means±SEM. Statistical comparisons were performed using the Student t-test.
One possible mechanism is that NR2B-containing receptors may contribute more to total NMDA currents in ACC synapses than in hippocampal synapses. […] Application of 0.1 μM or 0.4 μM NVP-AAM077 depressed total NMDAR-mediated currents by 59.0±4.3% (n=5) and 63.2±1.7% (n=6) in the ACC respectively (FIG. 5). On the other hand, application of 0.3 μM or 3 μM Ro25-6981 attenuated total NMDAR-mediated currents by 18.0±1.9% (n=5) and 18.1±3.4% (n=7) in the ACC respectively, showing that 0.3 μM Ro25-6981 was sufficient to block the NR2B-mediated currents (FIG. 5). This experiment was repeated in hippocampal CA1 neurons. […] However, unlike in the ACC, application of 0.3 μM Ro25-6981 alone potentiated, rather than blocked, total NMDAR-mediated currents by 51.3±16.4% in the hippocampus (FIG. 5).
The same experiment was repeated in the hippocampus.

[2] = tested on: NR2B siRNA electroporated ACC neurons; test: LTP in siRNA electroporated ACC neurons
Description: as §1, with “Data were discarded if access resistance changed by more than 15% during an experiment.” left out, “Statistical comparisons were performed using the Student t-test.” left out

[3] = tested on: NR2B-mediated NMDA EPSCs; test: NR2B-mediated NMDA EPSCs in neurons from siRNA electroporated ACC slices; conditions: Ro25-6981-sensitive component, control slices 12.6±2.6%
Description: Experiments were performed in a recording chamber on the stage of an Axioskop 2FS microscope with infrared DIC optics for visualizing whole-cell patch clamp recordings. EPSCs were recorded from layer II-III neurons using an Axon 200B amplifier (Axon Instruments, CA) and stimulations were delivered using a bipolar tungsten stimulating electrode placed in layer V of the ACC. In hippocampal slices, EPSCs were evoked by stimulating the Schaffer collateral-commissural pathway. EPSCs were induced by repetitive stimulations at 0.02 Hz and neurons were voltage clamped at −70 mV. The recording pipettes (3-5 MΩ) were filled with solution containing (mM) 145 K-gluconate, 5 NaCl, 1 MgCl2, 0.2 EGTA, 10 HEPES, 2 Mg-ATP, and 0.1 Na3-GTP (adjusted to pH 7.2 with KOH). After obtaining stable EPSCs for 10 min, three kinds of LTP induction paradigms were used within 12 min after establishing the whole-cell configuration to prevent wash out effect on LTP induction (Tsvetkov et al., 2002). The first protocol involved paired presynaptic 80 pulses at 2 Hz with postsynaptic depolarization at +30 mV (referred to as pairing training). […] The access resistance was 15-30 MΩ and was monitored throughout the experiment. […] Results are expressed as means±SEM. […]
NMDAR-mediated EPSCs were also recorded in neurons from electroporated ACC slices.

Molecule	further reduction of total NMDAR-mediated currents ([1]; 0.3 μM Ro25-6981 added to the same neuron after 0.4 μM NVP-AAM077) [%]	potentiation of total NMDAR-mediated currents ([1]; 0.3 μM alone) [%]	effect on total NMDAR-mediated currents ([1]; bath application, FIG. 5)	LTP vs control siRNA electroporated neurons ([2]; FIG. 7D)	potentiation (LTP) vs control siRNA electroporated neurons ([2]; TBS)	potentiation (LTP) vs control siRNA electroporated neurons ([2]; pairing training protocol)	NR2B-mediated NMDA EPSCs, % of total NMDAR-mediated current [3] [%]
C[C@@H](CN1CCC(Cc2ccccc2)CC1)[C@@H](O)c1ccc(O)cc1 [Ro25-6981]	6.6±1.4	51.3±16.4	enhanced				
NR2B siRNA: siRNA corresponding to NR2B, sense 5′-GGAUGAGUCCUCCAUGUUCtt-3′, antisense 5′-GAACAUGGAGGACUCAUCCtt-3′, Silencer Pre-designed siRNA ID #61879, Ambion (sense GGAUGAGUCCUCCAUGUUCTT; antisense GAACAUGGAGGACUCAUCCTT; chemistry not given here)				Smaller LTP	significantly reduced	significantly reduced	7.3±0.7
